The values below come from paper PMC12865225 (Clinical and Translational Science, 2026).

The target in one data set is T1, OATP1B1 (Homo sapiens, UniProt Q9Y6L6).
T1 construct: expressed in transfected cells; host or cells: HEK293 (recombinant baculovirus-mediated transduction)
T1 sequence (Q9Y6L6 1-691): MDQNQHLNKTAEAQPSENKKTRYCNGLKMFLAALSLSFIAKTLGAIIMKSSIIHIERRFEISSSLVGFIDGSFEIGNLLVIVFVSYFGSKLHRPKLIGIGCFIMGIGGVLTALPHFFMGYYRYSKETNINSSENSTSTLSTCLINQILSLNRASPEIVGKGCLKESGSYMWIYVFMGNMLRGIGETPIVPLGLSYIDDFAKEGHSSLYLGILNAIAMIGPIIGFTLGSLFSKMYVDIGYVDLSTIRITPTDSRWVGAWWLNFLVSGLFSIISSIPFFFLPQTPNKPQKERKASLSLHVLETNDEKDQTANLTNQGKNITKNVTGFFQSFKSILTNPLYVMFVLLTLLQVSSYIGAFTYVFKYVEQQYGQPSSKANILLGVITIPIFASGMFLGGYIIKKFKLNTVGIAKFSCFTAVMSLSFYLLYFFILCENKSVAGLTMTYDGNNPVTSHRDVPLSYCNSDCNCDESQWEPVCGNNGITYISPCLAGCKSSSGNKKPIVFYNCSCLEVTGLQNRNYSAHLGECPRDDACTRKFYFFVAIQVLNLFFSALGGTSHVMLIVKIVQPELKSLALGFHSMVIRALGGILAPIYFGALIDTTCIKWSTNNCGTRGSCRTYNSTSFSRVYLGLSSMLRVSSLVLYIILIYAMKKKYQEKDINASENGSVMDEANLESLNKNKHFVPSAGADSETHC
As to the kind of experiment: Determination of inhibition constant Ki for OATP1B1, rosuvastatin. Type of data set: cell-based. The conditions noted are these: rosuvastatin 1-80 µM, 30 min preincubation, 2 min; read-out: Ki-value for the competitive inhibition of OATP1B1. On the procedure: were removed and 300 µl of warm TP-buffer was added to each well and incubated for 5 min.
The washing was repeated twice , after which the transport assays were conducted in the presence of 1 µM 2′,7′ -dichlorofluorescein for 5 min. The wells that were pre -incubated with […]
incubated with the vehicle contained three different inhibitor concentrations. After the transport assays, the samples were treated and analyzed similarly as described in the main text and above. The uptake into vehicle control samples w as set to a value of 100% and all the inhibitor samples are presented relative to the vehicle control samples. […]
determined in a single experiment in triplicate samples by using 1 µM, 4 µM and 20 µM […]
µM, 2.5 µM, 10 µM, 20 µM, 40 µM and 80 µM). The assays included a 30 min preincubation step with the inhibitor , and the transport assays were conducted for 2 min . Further details are reported in the methods of the main text. The Ki value was calculated by fitting the com petitive inhibition model to the data with the nonlinear least squares method (nls) in R programming language environment (R version 4.3.1) :
Uptake refers to the rate of uptake in OATP1B1-expressing cells, after subtracting the uptake in control cells , Vmax is the maximum rate of transport, K m is the Michaelis constant, S is the […]
Efflux transport assays in HEK293 membrane vesicles […]

Another data set has as its system CYP3A4. The following applies: model input; cited from earlier work.

Each structure is given as a SMILES string. pKi: −log10 of the molar value.

Consider `Cc1onc(-c2c(Cl)cccc2Cl)c1C(=O)N[C@@H]1C(=O)N2[C@@H]1SC(C)(C)[C@@H]2C(=O)O` [Dicloxacillin], for which the pKi – broadly, −log10 of the Ki, conventionally taken in molar units – at OATP1B1 was 5.44.

Regarding `Cc1onc(-c2c(F)cccc2Cl)c1C(=O)N[C@@H]1C(=O)N2[C@@H]1SC(C)(C)[C@@H]2C(=O)O` [Flucloxacillin], in the data set with CYP3A4, the “CYP3A4 Indmax” value was 4.6.
